{
  "source": "ChEMBL document CHEMBL1154244",
  "about": "“Isoflavonoids from Erythrina poeppigiana: evaluation of their binding affinity for the estrogen receptor” (J Nat Prod, 2009)",
  "data": [
    {"species_on_record": "Homo sapiens", "assay": "Selectivity ratio of IC50 for human recombinant ERalpha to IC50 for human recombinant ERbeta", "values": [
      {"smiles": "CCCc1c(-c2ccc(O)cc2)nn(-c2ccc(O)cc2)c1-c1ccc(O)cc1", "Ratio IC50": 36},
      {"smiles": "CC1(C)C=Cc2c(cc3occ(-c4ccc(O)cc4)c(=O)c3c2O)O1", "Ratio IC50": 0.7},
      {"smiles": "COc1cc(O)c2c(=O)c(-c3cc(CC=C(C)C)c(O)cc3O)coc2c1", "Ratio IC50": 0.7},
      {"smiles": "CC(C)=CCc1cc(-c2coc3cc(O)cc(O)c3c2=O)ccc1O", "Ratio IC50": 0.6},
      {"smiles": "CC(C)=CCc1c(O)cc2occ(-c3ccc(O)cc3)c(=O)c2c1O", "Ratio IC50": 0.6},
      {"smiles": "COc1cc(O)c2c(=O)c(-c3ccc(O)c(CC(O)=C(C)C)c3)coc2c1", "Ratio IC50": 2.3},
      {"smiles": "COc1ccc2c(c1CC=C(C)C)O[C@H]1c3ccc(O)cc3OC[C@@]21O", "Ratio IC50": 2.2},
      {"smiles": "COc1cc(O)c2c(=O)c(-c3cc4c(cc3O)OC(C)(C)C(O)C4)coc2c1", "note": "(stereo not drawn)", "Ratio IC50": 16}
    ]}
  ]
}
